In brackets after ≈: the same amount, converted by molar mass.
Experiments:
[1] = tested on: Staphylococcus epidermidis; test: Antibacterial activity against methicillin-resistant Staphylococcus epidermidis 14-4; assay type: functional
Staphylococcus aureus [2] = test: Antibacterial activity against methicillin-sensitive Staphylococcus aureus 14-3; assay type: functional
[3] = Tmax in Sprague-Dawley rat at 10 mg/kg, po; assay type: ADME, organism-based; details: in vivo
Staphylococcus aureus [4] = test: Antibacterial activity against methicillin-sensitive Staphylococcus aureus 14-1; assay type: functional
[5] = Clearance in Sprague-Dawley rat at 2 mg/kg, iv; assay type: ADME, organism-based; details: in vivo
Escherichia coli [6] = test: Antibacterial activity against Escherichia coli 14-1; assay type: functional
[7] = Tmax in Sprague-Dawley rat at 2 mg/kg, iv; assay type: ADME, organism-based; details: in vivo
Escherichia coli [8] = test: Antibacterial activity against Escherichia coli 14-2; assay type: functional
Staphylococcus aureus [9] = test: Antibacterial activity against methicillin-sensitive Staphylococcus aureus 14-4; assay type: functional
[10] = MRT (0 to t) in Sprague-Dawley rat at 2 mg/kg, iv; assay type: ADME, organism-based; details: in vivo
Enterococcus faecalis [11] = test: Antibacterial activity against Enterococcus faecalis 14-3; assay type: functional
Escherichia coli [12] = test: Antibacterial activity against Escherichia coli 14-2 expressing extended-spectrum beta-lactamase; assay type: functional
Staphylococcus aureus [13] = test: Antibacterial activity against methicillin-resistant Staphylococcus aureus 14-5; assay type: functional
Rattus norvegicus [14] = test: (§1) Clearance in Sprague-Dawley rat at 10 mg/kg, po; assay type: ADME, organism-based; details: in vivo
Enterococcus faecalis [15] = test: Antibacterial activity against Enterococcus faecalis 14-5; assay type: functional
Enterococcus faecalis [16] = test: Antibacterial activity against Enterococcus faecalis 14-1; assay type: functional
Enterococcus faecalis [17] = test: Antibacterial activity against Enterococcus faecalis 14-2; assay type: functional
[18] = Cmax in Sprague-Dawley rat at 2 mg/kg, iv; assay type: ADME, organism-based; set-up: dose 2 mg/kg, route intravenous; details: in vivo
[19] = MRT (0 to t) in Sprague-Dawley rat at 10 mg/kg, po; assay type: ADME, organism-based; details: in vivo
[20] = Half life in Sprague-Dawley rat at 2 mg/kg, iv; assay type: ADME, organism-based; details: in vivo
[21] = tested on: Staphylococcus epidermidis; test: Antibacterial activity against methicillin-sensitive Staphylococcus epidermidis 14-3; assay type: functional
Rattus norvegicus [22] = test: (§2) AUC (0 to infinity) in Sprague-Dawley rat at 10 mg/kg, po; assay type: ADME, organism-based; set-up: dose 10 mg/kg, time infinity, route oral; details: in vivo
[23] = (§3) AUC (0 to infinity) in Sprague-Dawley rat at 2 mg/kg, iv; assay type: ADME, organism-based; set-up: dose 2 mg/kg, route intravenous, time infinity; details: Sprague-Dawley, in vivo
Rattus norvegicus [24] = test: Volume of distribution at steady state in Sprague-Dawley rat at 10 mg/kg, po; assay type: ADME, organism-based; details: in vivo
[25] = tested on: Staphylococcus epidermidis; test: Antibacterial activity against methicillin-sensitive Staphylococcus epidermidis 14-2; assay type: functional
[26] = Oral bioavailability in Sprague-Dawley rat at 10 mg/kg; assay type: ADME, organism-based; details: in vivo
[27] = AUC (0 to t) in Sprague-Dawley rat at 10 mg/kg, po; assay type: ADME, organism-based; details: in vivo
Staphylococcus aureus [28] = test: Antibacterial activity against methicillin-resistant Staphylococcus aureus 14-4; assay type: functional
Staphylococcus aureus [29] = test: Antibacterial activity against methicillin-resistant Staphylococcus aureus 14-2; assay type: functional
[30] = Volume of distribution at steady state in Sprague-Dawley rat at 2 mg/kg, iv; assay type: ADME, organism-based; details: in vivo, read-out: Vdss
[31] = (§4) AUC (0 to t) in Sprague-Dawley rat at 2 mg/kg, iv; assay type: ADME, organism-based; details: Sprague-Dawley, in vivo
[32] = Cmax in Sprague-Dawley rat at 10 mg/kg, po; assay type: ADME, organism-based; set-up: dose 10 mg/kg, route oral; details: in vivo
Staphylococcus aureus [33] = test: Antibacterial activity against methicillin-resistant Staphylococcus aureus 14-1; assay type: functional
Staphylococcus aureus [34] = test: Antibacterial activity against methicillin-sensitive Staphylococcus aureus 14-2; assay type: functional
[35] = tested on: Staphylococcus epidermidis; test: Antibacterial activity against methicillin-resistant Staphylococcus epidermidis 14-1; assay type: functional
Rattus norvegicus [36] = test: (§5) Half life in Sprague-Dawley rat at 10 mg/kg, po; assay type: ADME, organism-based; details: in vivo
Escherichia coli [37] = test: Antibacterial activity against Escherichia coli 14-1 expressing extended-spectrum beta-lactamase; assay type: functional
[38] = tested on: Staphylococcus epidermidis; test: Antibacterial activity against methicillin-sensitive Staphylococcus epidermidis 14-1; assay type: functional
[39] = as §1; assay type: ADME, organism-based; details: Sprague-Dawley, in vivo
[40] = as §2; assay type: ADME, organism-based; set-up: dose 10 mg/kg, time infinity, route oral; details: Sprague-Dawley, in vivo
Rattus norvegicus [41] = test: as §3; assay type: ADME, organism-based; set-up: dose 2 mg/kg, route intravenous, time infinity; details: in vivo
Rattus norvegicus [42] = test: as §4; assay type: ADME, organism-based; details: in vivo
[43] = as §5; assay type: ADME, organism-based; details: Sprague-Dawley, in vivo

**Q.** Which results are given for CCCC[C@H](CN(O)C=O)C(=O)N1CC2(CC2)C[C@H]1C(=O)Nc1ccc(C)c(Nc2nccc(-c3cccnc3)n2)c1?
**A.** MIC [1]: < 0.008 µg/mL; MIC (Staphylococcus aureus [2]): 0.015 µg/mL (≈ 0.0262 µM); Tmax [3]: 0.25 h; MIC (Staphylococcus aureus [4]): 0.015 µg/mL (≈ 0.0262 µM); clearance [5]: 37.7 mL/min/kg; MIC (Escherichia coli [6]): > 128 µg/mL; Tmax [7]: 4.8 min; MIC (Escherichia coli [8]): > 128 µg/mL; MIC (Staphylococcus aureus [9]): 0.015 µg/mL (≈ 0.0262 µM); MRT last [10]: 1.15 h; MIC (Enterococcus faecalis [11]): 0.03 µg/mL (≈ 0.0525 µM); MIC (Escherichia coli [12]): > 128 µg/mL; MIC (Staphylococcus aureus [13]): < 0.008 µg/mL; CL (Rattus norvegicus [14]): 5.57 mL/min/kg; MIC (Enterococcus faecalis [15]): > 128 µg/mL; MIC (Enterococcus faecalis [16]): 0.03 µg/mL (≈ 0.0525 µM); MIC (Enterococcus faecalis [17]): 0.015 µg/mL (≈ 0.0262 µM); Cmax [18]: 1080 ng/mL; MRT last [19]: 3.32 h; half-life [20]: 3.6 h; MIC [21]: < 0.008 µg/mL; AUC (Rattus norvegicus [22]): 134 ng·h/mL; AUC(0-inf) [23]: 892 ng·h/mL; Vdss (Rattus norvegicus [24]): 1772 L/kg; MIC [25]: < 0.008 µg/mL; bioavailability [26]: 3%; AUC(0-t) [27]: 126 ng·h/mL; MIC (Staphylococcus aureus [28]): < 0.008 µg/mL; MIC (Staphylococcus aureus [29]): 0.015 µg/mL (≈ 0.0262 µM); Vd [30]: 2.6 L/kg; AUC(0-t) [31]: 881 ng·h/mL; Cmax [32]: 100 ng/mL; MIC (Staphylococcus aureus [33]): 0.015 µg/mL (≈ 0.0262 µM); MIC (Staphylococcus aureus [34]): 0.015 µg/mL (≈ 0.0262 µM); MIC [35]: < 0.008 µg/mL; t1/2 (Rattus norvegicus [36]): 2.24 h; MIC (Escherichia coli [37]): 4 µg/mL (≈ 7 µM); MIC [38]: 0.015 µg/mL (≈ 0.0262 µM)

**Q.** Which MIC [1] does the source give for CCCC[C@H](CN(O)C=O)C(=O)N1CC2(CC2)C[C@H]1C(=O)Nc1ncc(C)s1 here?
**A.** Its MIC is < 0.008 µg/mL.

**Q.** And the MIC (Staphylococcus aureus [2])?
**A.** Its MIC is < 0.008 µg/mL.

**Q.** What about the Tmax [3] of the same compound?
**A.** The Tmax was 0.58 h.

**Q.** What about the MIC (Staphylococcus aureus [4]) of the same compound?
**A.** Its MIC is < 0.008 µg/mL.

**Q.** And the clearance [5]?
**A.** Its clearance is 23.5 mL/min/kg.

**Q.** What about the MIC (Escherichia coli [6]) of the same compound?
**A.** Its MIC is 32 µg/mL (≈ 78.3 µM).

**Q.** And the Tmax [7]?
**A.** Its Tmax is 4.8 min.

**Q.** And the MIC (Escherichia coli [8])?
**A.** The MIC was 32 µg/mL (≈ 78.3 µM).

**Q.** And the MIC (Staphylococcus aureus [9])?
**A.** The MIC was < 0.008 µg/mL.

**Q.** And the MRT last [10]?
**A.** The MRT last was 1.74 h.

**Q.** What about the MIC (Enterococcus faecalis [11]) of the same compound?
**A.** Its MIC is 0.5 µg/mL (≈ 1.22 µM).

**Q.** And the MIC (Escherichia coli [12])?
**A.** The MIC was 32 µg/mL (≈ 78.3 µM).

**Q.** And the MIC (Staphylococcus aureus [13])?
**A.** The MIC was < 0.008 µg/mL.

**Q.** And the CL/F [39]?
**A.** The CL/F was 82.3 mL/min/kg.

**Q.** What about the MIC (Enterococcus faecalis [15]) of the same compound?
**A.** The MIC was 0.25 µg/mL (≈ 0.612 µM).

**Q.** And the MIC (Enterococcus faecalis [16])?
**A.** Its MIC is 0.125 µg/mL (≈ 0.306 µM).

**Q.** And the MIC (Enterococcus faecalis [17])?
**A.** Its MIC is 0.5 µg/mL (≈ 1.22 µM).

**Q.** And the Cmax [18]?
**A.** The Cmax was 1090 ng/mL.

**Q.** What about the MRT last [19] of the same compound?
**A.** Its MRT last is 4.42 h.

**Q.** And the half-life [20]?
**A.** Its half-life is 1.14 h.

**Q.** And the MIC [21]?
**A.** The MIC was < 0.008 µg/mL.

**Q.** And the AUC(0-inf) [40]?
**A.** The AUC(0-inf) was 2130 ng·h/mL.

**Q.** And the AUC (Rattus norvegicus [41])?
**A.** Its AUC is 653 ng·h/mL.

**Q.** And the Vdss (Rattus norvegicus [24])?
**A.** Its Vdss is 36.5 L/kg.

**Q.** And the MIC [25]?
**A.** Its MIC is < 0.008 µg/mL.

**Q.** And the bioavailability [26]?
**A.** The bioavailability was 30%.

**Q.** And the AUC(0-t) [27]?
**A.** Its AUC(0-t) is 2080 ng·h/mL.

**Q.** And the Vd [30]?
**A.** Its Vd is 3.6 L/kg.

**Q.** What about the AUCt (Rattus norvegicus [42]) of the same compound?
**A.** Its AUCt is 653 ng·h/mL.

**Q.** What about the Cmax [32] of the same compound?
**A.** Its Cmax is 630 ng/mL.

**Q.** And the MIC (Staphylococcus aureus [34])?
**A.** The MIC was < 0.008 µg/mL.

**Q.** And the half-life [43]?
**A.** The half-life was 5 h.

**Q.** What about the MIC (Escherichia coli [37]) of the same compound?
**A.** The MIC was 0.125 µg/mL (≈ 0.306 µM).

**Q.** What about the MIC [38] of the same compound?
**A.** The MIC was < 0.008 µg/mL.
